{"source": "ChEMBL document CHEMBL1128925", "about": "“Novel inhibitors of cell adhesion molecule expression” (Bioorg Med Chem Lett, 1996)", "key": {"HUVEC [1]": {"tested_on": "HUVEC", "assay": "Compound was evaluated for inhibition of expression of ELAM-1 in IL-1 beta activated human umbilical vein endothelial cells(HUVECs) by using ELISA", "format": "functional, cell-based"}, "Mus musculus": {"species": "Mus musculus", "assay": "Compound was evaluated for inhibition of neutrophil recruitment in a mouse skin immune complex model.", "format": "functional", "design": "concentration or dose not given beside the values"}, "HUVEC [2]": {"tested_on": "HUVEC", "assay": "Compound was evaluated for inhibition of expression of VCAM-1 in IL-1 beta activated human umbilical vein endothelial cells(HUVECs) by using ELISA", "format": "functional, cell-based"}, "HUVEC [3]": {"tested_on": "HUVEC", "assay": "Compound was evaluated for inhibition of expression of VCAM-1 in IL-1 beta activated human umbilical vein endothelial cells(HUVECs) by using ELISA at 30 uM", "format": "functional"}, "HUVEC [4]": {"tested_on": "HUVEC", "assay": "Compound was evaluated for inhibition of expression of ELAM-1 in IL-1 beta activated human umbilical vein endothelial cells(HUVECs) by using ELISA at 30 uM", "format": "functional"}}}
{"smiles": "COc1c(C)cnc(C[S+]([O-])c2nnc(-c3ccccc3O)o2)c1C", "note": "(configuration not stated)", "values": [{"measurement": "IC50", "setting": "HUVEC [1]", "result": 10, "unit": "µM"}, {"measurement": "Inhibition", "setting": "Mus musculus", "result": 20, "unit": "%"}, {"measurement": "IC50", "setting": "HUVEC [2]", "result": 8, "unit": "µM"}]}
{"smiles": "COc1ccnc2c1CCCCC2[S+]([O-])c1nnc(C)o1", "note": "(configuration not stated)", "values": [{"measurement": "inhibition at 30 µM", "setting": "HUVEC [3]", "result": 0, "unit": "%"}, {"measurement": "inhibition at 30 µM", "setting": "HUVEC [4]", "result": 0, "unit": "%"}]}
{"smiles": "COc1c(C)cnc(C[S+]([O-])c2nnc(-c3cccs3)o2)c1C", "note": "(configuration not stated)", "values": [{"measurement": "IC50", "setting": "HUVEC [1]", "result": 5, "unit": "µM"}, {"measurement": "IC50", "setting": "HUVEC [2]", "result": 3, "unit": "µM"}]}
{"smiles": "COc1c(C)cnc(C[S+]([O-])c2nnc(-c3ccccc3)o2)c1C", "note": "(configuration not stated)", "values": [{"measurement": "IC50", "setting": "HUVEC [1]", "result": 7, "unit": "µM"}, {"measurement": "Inhibition", "setting": "Mus musculus", "result": 25, "unit": "%"}, {"measurement": "IC50", "setting": "HUVEC [2]", "result": 6, "unit": "µM"}]}
{"smiles": "COc1c(C)cnc(C[S+]([O-])c2nnc(-c3ccc(F)cc3)o2)c1C", "note": "(configuration not stated)", "values": [{"measurement": "IC50", "setting": "HUVEC [1]", "result": 14, "unit": "µM"}, {"measurement": "IC50", "setting": "HUVEC [2]", "result": 11, "unit": "µM"}]}
{"smiles": "CCc1nnc([S+]([O-])Cc2ncc(C)c(OC)c2C)o1", "note": "(configuration not stated)", "values": [{"measurement": "IC50", "setting": "HUVEC [1]", "result": 12, "unit": "µM"}, {"measurement": "IC50", "setting": "HUVEC [2]", "result": 10, "unit": "µM"}]}
{"smiles": "CCCCc1nnc([S+]([O-])Cc2ncc(C)c(OC)c2C)o1", "note": "(configuration not stated)", "values": [{"measurement": "inhibition at 30 µM", "setting": "HUVEC [3]", "result": 85, "unit": "%"}, {"measurement": "inhibition at 30 µM", "setting": "HUVEC [4]", "result": 60, "unit": "%"}]}
{"smiles": "COc1c(C)cnc(C[S+]([O-])c2nnc(C)o2)c1C", "note": "(configuration not stated)", "values": [{"measurement": "IC50", "setting": "HUVEC [1]", "result": 10, "unit": "µM"}, {"measurement": "Inhibition", "setting": "Mus musculus", "result": 55, "unit": "%"}, {"measurement": "IC50", "setting": "HUVEC [2]", "result": 8, "unit": "µM"}]}
{"smiles": "Cc1nnc([S+]([O-])Cc2ccccn2)o1", "note": "(configuration not stated)", "values": [{"measurement": "inhibition at 30 µM", "setting": "HUVEC [3]", "result": 80, "unit": "%"}, {"measurement": "Inhibition", "setting": "Mus musculus", "result": 40, "unit": "%"}, {"measurement": "inhibition at 30 µM", "setting": "HUVEC [4]", "result": 60, "unit": "%"}]}
{"smiles": "COc1c(C)cnc(C[S+]([O-])c2nnc(-c3cccn3C)o2)c1C", "note": "(configuration not stated)", "values": [{"measurement": "IC50", "setting": "HUVEC [1]", "result": 6, "unit": "µM"}, {"measurement": "IC50", "setting": "HUVEC [2]", "result": 4, "unit": "µM"}]}
{"smiles": "[O-][S+](Cc1ccccc1)c1nnc(-c2ccccc2O)o1", "note": "(configuration not stated)", "values": [{"measurement": "IC50", "setting": "HUVEC [1]", "result": 8, "unit": "µM"}, {"measurement": "IC50", "setting": "HUVEC [2]", "result": 6, "unit": "µM"}]}
{"smiles": "[O-][S+](Cc1ccccc1)c1nnc(-c2cccs2)o1", "note": "(configuration not stated)", "values": [{"measurement": "IC50", "setting": "HUVEC [1]", "result": 7, "unit": "µM"}, {"measurement": "Inhibition", "setting": "Mus musculus", "result": 40, "unit": "%"}, {"measurement": "IC50", "setting": "HUVEC [2]", "result": 6, "unit": "µM"}]}
{"smiles": "COc1c(C)cnc(C[S+]([O-])c2nnc(-c3ccc(C(F)(F)F)cc3)o2)c1C", "note": "(configuration not stated)", "values": [{"measurement": "inhibition at 30 µM", "setting": "HUVEC [3]", "result": 70, "unit": "%"}, {"measurement": "inhibition at 30 µM", "setting": "HUVEC [4]", "result": 50, "unit": "%"}]}
{"smiles": "[O-][S+](Cc1ccccc1)c1nnc(-c2cccnc2)o1", "note": "(configuration not stated)", "values": [{"measurement": "IC50", "setting": "HUVEC [1]", "result": 8, "unit": "µM"}, {"measurement": "Inhibition", "setting": "Mus musculus", "result": 50, "unit": "%"}, {"measurement": "IC50", "setting": "HUVEC [2]", "result": 6, "unit": "µM"}]}
{"smiles": "[O-][S+](Cc1ccccc1)c1nnc(-c2ccccn2)o1", "note": "(configuration not stated)", "values": [{"measurement": "IC50", "setting": "HUVEC [1]", "result": 5, "unit": "µM"}, {"measurement": "Inhibition", "setting": "Mus musculus", "result": 80, "unit": "%"}, {"measurement": "IC50", "setting": "HUVEC [2]", "result": 4, "unit": "µM"}]}
{"smiles": "[O-][S+](Cc1ccccc1)c1nnc(-c2ccncc2)o1", "note": "(configuration not stated)", "values": [{"measurement": "IC50", "setting": "HUVEC [1]", "result": 4, "unit": "µM"}, {"measurement": "Inhibition", "setting": "Mus musculus", "result": 55, "unit": "%"}, {"measurement": "IC50", "setting": "HUVEC [2]", "result": 3, "unit": "µM"}]}
{"smiles": "Cc1nnc([S+]([O-])c2c(C)cccc2C)o1", "note": "(configuration not stated)", "values": [{"measurement": "inhibition at 30 µM", "setting": "HUVEC [3]", "result": 0, "unit": "%"}, {"measurement": "inhibition at 30 µM", "setting": "HUVEC [4]", "result": 0, "unit": "%"}]}
{"smiles": "CCCc1nnc([S+]([O-])Cc2ncc(C)c(OC)c2C)o1", "note": "(configuration not stated)", "values": [{"measurement": "IC50", "setting": "HUVEC [1]", "result": 10, "unit": "µM"}, {"measurement": "IC50", "setting": "HUVEC [2]", "result": 8, "unit": "µM"}]}
{"smiles": "COc1c(C)cnc(C[S+]([O-])c2nnc(-c3cccc(C(F)(F)F)c3)o2)c1C", "note": "(configuration not stated)", "values": [{"measurement": "inhibition at 30 µM", "setting": "HUVEC [3]", "result": 85, "unit": "%"}, {"measurement": "inhibition at 30 µM", "setting": "HUVEC [4]", "result": 70, "unit": "%"}]}
{"smiles": "CCCCCc1nnc([S+]([O-])Cc2ncc(C)c(OC)c2C)o1", "note": "(configuration not stated)", "values": [{"measurement": "inhibition at 30 µM", "setting": "HUVEC [3]", "result": 70, "unit": "%"}, {"measurement": "inhibition at 30 µM", "setting": "HUVEC [4]", "result": 45, "unit": "%"}]}
{"smiles": "Cc1nnc([S+]([O-])Cc2ccccc2)o1", "note": "(configuration not stated)", "values": [{"measurement": "inhibition at 30 µM", "setting": "HUVEC [3]", "result": 35, "unit": "%"}, {"measurement": "inhibition at 30 µM", "setting": "HUVEC [4]", "result": 20, "unit": "%"}]}
{"smiles": "COc1c(C)cnc(C[S+]([O-])c2nnc(-c3cccc(F)c3)o2)c1C", "note": "(configuration not stated)", "values": [{"measurement": "IC50", "setting": "HUVEC [1]", "result": 15, "unit": "µM"}, {"measurement": "IC50", "setting": "HUVEC [2]", "result": 12, "unit": "µM"}]}
